Results published in US20050148763A1, “Peg-binding pth or peg-binding pth derivative” (Chugai Seiyaku Kabushiki Kaisha, priority 2002, published 2005).
Where two headings read alike, the source gives them in different places.

What was measured:
[1] = clinical trial, cited from earlier work
[2] = Pharmacokinetics and bioavailability in rats by subcutaneous route; format: in vivo
Method: Each sample was adjusted to 80 μg/mL by dilution with 25 mmol/L citrate-phosphate buffer (pH 5.0) containing 100 mmol/L NaCl and 0.05 vol % Tween 20 to give a solution for administration. Male SD rats at 6 weeks of age (CLEA Japan, Inc.) were provided for this experiment. Intravenous injection was performed on rats having polyethylene tubes (SP-31, Natsume Seisakusho Co., Ltd.) inserted into the femoral artery and vein. The solutions thus prepared were each administered at a dose of 1 mL/kg through a polyethylene tube inserted into the femoral vein, and blood was collected through a polyethylene tube inserted into the femoral artery before administration and at 5, 15, 30 and 45 minutes as well as 1, 2, 4, 6, 8 and 24 hours after administration. Subcutaneous administration was performed on rats having polyethylene tubes inserted into the femoral artery. The solutions prepared above were each subcutaneously administered at a dose of 1 mL/kg to the dorsal neck region of the rats, and blood was collected in the same manner as used for intravenous injection. These blood samples were centrifuged to collect plasma and stored at −40° C. until assayed for PTH(1-34) or PEG-PTH(1-34) levels.
The level of PTH(1-34) or PEG-PTH(1-34) was determined by RIA analysis using a Rat PTH IRMA Kit (Immutopics). A Cobra Quantum Model 5005 gamma counter (Packard) was used to measure radioactivity for each sample. The plasma level of PTH(1-34) or PEG-PTH(1-34) was calculated from a calibration curve prepared using PTH(1-34) or PEG-PTH(1-34). The Winnonlin program Ver. 2.1 (Scientific Consulting Inc.) was used to analyze the time course of changes in the calculated plasma PTH(1-34) or PEG-PTH(1-34) levels (FIG. 3: by intravenous route; FIG. 4: by subcutaneous route) to calculate the following as pharmacokinetic parameters: time required to reach the maximum plasma level (Tmax); maximum plasma level (Cmax); area under the curve of plasma levels (AUC); plasma half-life (t1/2); total body clearance (Cltotal); mean residence time in the body (MRT); and bioavailability (BA). […]

[3] = Hypercalcemic effect of PEG-PTH(1-34) in normal male BDF1 mice; format: in vivo; conditions: sc, hPTH(1-34) 50-500 nmol/kg, PEG-PTHs 150 nmol/kg
Method: 2 k and 5 k PEG-PTH(1-34) were also adjusted similarly to 30 nmol/mL (calculated as PTH) and allowed to stand on ice immediately before administration.
Male BDF1 mice at 5 weeks of age (Charles River Japan, Inc.) were measured for their body weight. Immediately before drug administration, blood was collected by orbital puncture into heparinized capillary tubes and measured for baseline levels of blood ionized calcium and pH using a Ca^2+/pH analyzer (Model 348/Bayer Medical Ltd.) to give the corrected level of ionized calcium at pH 7.4 for each sample. The mice received subcutaneous administration of each drug at a dose of 5 mL/kg. […] At 1, 3 and 6 hours after administration, blood was collected by orbital puncture to monitor the time course of corrected blood ionized calcium levels.

[4] = Hypotensive effect in anesthetized rats; format: in vivo; conditions: sc
Method: The mono-methoxy 5 k PEG-PTH(1-34) prepared in Example 1(2) was also adjusted similarly to 36.5, 18.3 and 9.1 μg/mL (calculated as PTH(1-34)). The samples thus prepared were then stored on ice and restored to room temperature about 30 minutes before administration.
Female SD rats at 10 weeks of age (Charles River Japan, Inc.) were anesthetized by intraperitoneal administration of 50 mg/kg pentobarbital sodium (Abbott Laboratories). A catheter for blood pressure measurement and a catheter for anesthesia maintenance were inserted into the femoral artery and vein, respectively, of each rat. Anesthesia was maintained using a syringe pump (Terumo Corporation) to ensure continuous injection (at 22.5 mg/kg/hour) of pentobarbital sodium (powder form, Tokyo Kasei Kogyo Co., Ltd.) dissolved in physiological saline (Otsuka Pharmaceutical Co., Ltd.). On the other hand, each catheter for blood pressure measurement was filled with 100 U/mL heparin sodium (Novo Nordisk A/S) in physiological saline. To measure systemic blood pressure, a pressure transducer (Nihon Kohden Corporation) was connected to the catheter for blood pressure measurement and signals from the transducer were input to a blood pressure amplifier (Nihon Kohden Corporation). The resulting data were averaged for use as an indicator of systemic blood pressure. The output of systemic blood pressure was, in turn, input to a measuring unit for instantaneous heart rate (Nihon Kohden Corporation) to determine heart rate. These parameters were continuously recorded on a thermal pen recorder (Graphtec Corporation) at a speed of 5 mm/min. After surgery, an injection needle for administration of a test substance was inserted into the dorsal subcutaneous region of each rat. After each parameter had stabilized, test drugs were administered. […] This figure illustrates changes in blood pressure induced by administration of a negative control (buffer), 50 μg/kg hPTH (1-34) and 36.5 μg/kg 5 k PEG-PTH(1-34) in this order from the upper panel. In addition, the average value of blood pressure before PTH administration and the value at the maximum blood pressure drop after administration were measured for each case to determine the difference between these two values. […] The vertical axis represents the maximum blood pressure drop (mmHg) and the horizontal axis represents the amount of PTH administered.

bioavailability ([2]; male, SD, rat, plasma, sc, 80 μg/kg, subcutaneous route, read-out: BA): 13.6%
Cmax ([2]; rat, in vivo, sc, subcutaneous, 80 μg/mL at 1 mL/kg): 5.55 ng/mL
AUC ([2]; rat, in vivo, sc, subcutaneous, 80 μg/mL at 1 mL/kg, read-out: AUC): 2.94 ng·h/mL
MRT ([2]; rat, in vivo, sc, subcutaneous, 80 μg/mL at 1 mL/kg, read-out: MRT): 32.8 min
Tmax ([2]; rat, in vivo, sc, subcutaneous, 80 μg/mL at 1 mL/kg, read-out: Tmax): 11.6 min
half-life ([2]; rat, in vivo, sc, subcutaneous, 80 μg/mL at 1 mL/kg, read-out: t ½ (converted)): 20.9 min
BA ([2]; subcutaneous route): about 13.6%
time of maximum increase in blood ionized calcium levels after administration [3]: one
SMILES: CC[C@H](C)[C@H](NC(=O)[C@H](CCC(=O)O)NC(=O)[C@H](CO)NC(=O)[C@@H](NC(=O)[C@@H](N)CO)C(C)C)C(=O)N[C@@H](CCC(N)=O)C(=O)N[C@@H](CC(C)C)C(=O)N[C@@H](CCSC)C(=O)N[C@@H](Cc1cnc[nH]1)C(=O)N[C@@H](CC(N)=O)C(=O)N[C@@H](CC(C)C)C(=O)NCC(=O)N[C@@H](CCCCN)C(=O)N[C@@H](Cc1cnc[nH]1)C(=O)N[C@@H](CC(C)C)C(=O)N[C@@H](CC(N)=O)C(=O)N[C@@H](CO)C(=O)N[C@@H](CCSC)C(=O)N[C@@H](CCC(=O)O)C(=O)N[C@@H](CCCN=C(N)N)C(=O)N[C@H](C(=O)N[C@@H](CCC(=O)O)C(=O)N[C@@H](Cc1c[nH]c2ccccc12)C(=O)N[C@@H](CC(C)C)C(=O)N[C@@H](CCCN=C(N)N)C(=O)N[C@@H](CCCCN)C(=O)N[C@@H](CCCCN)C(=O)N[C@@H](CC(C)C)C(=O)N[C@@H](CCC(N)=O)C(=O)N[C@@H](CC(=O)O)C(=O)N[C@H](C(=O)N[C@@H](Cc1cnc[nH]1)C(=O)N[C@@H](CC(N)=O)C(=O)N[C@@H](Cc1ccccc1)C(=O)O)C(C)C)C(C)C [hPTH(1-34), reference compound]
nausea and headache as side effects (in words) ([1]; dose of 20 μg): same frequency as observed in the placebo group
nausea and headache as side effects (in words) ([1]; dose of 40 μg): caused nausea and headache as side effects at a statistically significant level
hypotensive effect after administration (in words) ([4]; anesthetized female SD rats): strong hypotensive effect immediately after administration
hypotensive effect over doses, maximum blood pressure drop (in words) ([4]; anesthetized rats, hPTH(1-34) 12.5-50 μg/kg, 5 k PEG-PTH(1-34) 9.1-36.5 μg/kg): dose-dependent hypotensive effect in the range of 12.5 μg/kg to 50 μg/kg
